Measurements taken from patent US20060276549A1, “Combination and use of drugs” (priority 2005, published 2006).
Read-outs that look alike come from different tables or passages of the source.

How the values were obtained:
[1] = tested on: Diet-induced Obese (DIO) Mice; assay: Body weight loss in diet-induced obese (DIO) mice; format: in vivo, C57BL/6J mice; conditions: for body weight loss at day 14: p.o. q.d., sibutramine 15 mg/kg, rimonabant 3 mg/kg base
Description: C57BL/6J mice (age 5-6 weeks) were obtained from Jackson Labs (Bar Harbor, Me.) and housed in groups of 5 under conditions of 12 hours lights on, 12 hours lights off (on at 04:00 h), with food and water available ad libitum. At the beginning of the study, mice were administered a purified low fat diet (D12450Bi, 10 kcal % fat, 3.8 kcal/g) or a high fat content diet (D12492i, 60 kcal % fat, 5.2 kcal/g), both obtained from Research Diets Inc. (New Brunswick, N.J.) for approximately 16 weeks. The fat content of these diets was a mixture of lard and soybean oil.
(§1) Mice were individually housed for study two weeks prior to start of treatment. Mice were weighed one week later (experiment day -7), and conditioned to oral gavage and daily vehicle administration by daily oral treatment at 15:00 h with Tween-80 (Sigma Chemical, St. Louis, Mo.) 1% vehicle in water (V/V). All doses were given in 4 ml/kg body weight volume of vehicle. All compound doses are expressed as base equivalent weights per unit body weight. Mice were reweighed on day -1 to ensure that weight loss plateaued and was not progressive. Mice were stratified into groups of equal mean body weight, with n=20 mice per group. On days 0 to 28, mice were dosed by oral gavage at 15:00 h (q.d.). Sibutramine hydrochloride monohydrate and rimonabant hydrochloride were administered p.o. by gavage for 27 to 28 days at 15:00 h, at doses of 15 mg/kg and 3 mg/kg base, respectively, once a day (q.d.). Compounds were formulated in Tween-80 vehicle. For combination treatment, the individual compound formulations were mixed together immediately prior to dosing, and given as a single gavage. Food and body weights were determined on days 0 prior to treatment, and on days 1, 4, 7, 11, 14, 18, 21, 25, 27 and 28. Ten mice per group were fasted overnight on day 27. […] Plasma was analysed for insulin, leptin, free fatty acids, triglycerides, total cholesterol, HDLc and LDLc. […]

[2] = tested on: Zucker fa/fa rats; assay: Rat model of snacking behavior with isobologram analysis; format: in vivo; conditions: for ED50: Rattus norvegicus, read-out: ED50 for reduction of snack intake (50% reduction in Snack Consumption); for effect on snack intake / snacking: oral dosing before snack
Description: Non-fasted male Zucker fa/fa −/− rats (450 gr) were habituated for 3 weeks to a twice weekly, 3 hour exposure to 60% fat diet (RDI #12492) achieving an average snack intake of 12 to 16 g. Compounds or vehicle (1% Tween 80/water) were dosed orally, 1 ml/kg, n=12-15/group, 1 hour before exclusive presentation of the snack. Snack intake and subsequent 21-hour intake of standard chow (Purina 5008) were measured. […] It is unclear from these individual studies, however, if combination treatment would result in an even greater effect on snacking behavior as reflected in a shift of the ED50 to lower doses. Therefore, an isobologram analysis was performed as described in Example 6
Dose response curves for sibutramine hydrochloride monohydrate and rimonabant hydrochloride were generated in the rat snacking model and ED50 and 95% confidence limits derived from the linear part of the curve by linear regression. Two combination studies in snacking (n=12 rats/group) were performed; the first with a fixed dose of sibutramine HCl (5 mg base/kg) co-administered with rimonabant at 1, 2.5, and 5 mg base/kg, and the second with rimonabant fixed at 4 mg base/kg with sibutramine at 2, 4, and 8 mg base/kg, plus vehicle control. ED50 values were derived from the combination studies and plotted on the isobologram. The ED50 is the dose where there is a 50% reduction in Snack Consumption. […] The rimonabant hydrochloride ED50 is 8 mg/kg.

[3] = tested on: Diet-induced Obese (DIO) Mice; assay: Prevention of body weight re-gain in DIO mice; format: in vivo, C57BL/6J mice; conditions: DIO mice re-introduced to high fat food; qd dosing, day 0-7; vs HF, LF, to HF control
Description: C57BL/6J mice (age 5-6 weeks) were obtained from Jackson Labs (Bar Harbor, Me.) and housed in groups of 5 under conditions of 12 hours lights on, 12 hours lights off (on at 04:00 h), with food and water available ad libitum. At the beginning of the study, mice were administered a purified low fat diet (D12450Bi, 10 kcal % fat, 3.8 kcal/g) or a high fat content diet (D12492i, 60 kcal % fat, 5.2 kcal/g), both obtained from Research Diets Inc. (New Brunswick, N.J.) for approximately 16 weeks. The fat content of these diets was a mixture of lard and soybean oil. Groups of mice that had been on the high fat diet were switched back to the low fat diet for approximately 4 weeks prior to their being re-introduced to either the high fat food (weight re-gain) or maintained on low fat food. Approximately 5 days prior to the onset of dosing study (Day -5), mice were acclimated to handling and conditioned to oral gavage and daily vehicle administration by daily oral treatment at 15:00 h with Tween-80 (Sigma Chemical, St. Louis, Mo.) 1% vehicle in water (VN). All doses were given in 4 ml/kg body weight volume of vehicle. At the start of drug treatment, mice were dosed qd at 15:00 hr each day for 7 days, and body weights and food intake were evaluated.

[4] = tested on: DIO mice; assay: DEXA analysis of body composition in DIO mice; format: in vivo; conditions: Day 28
Description: as §1

[5] = cited from earlier work

Which results are given for `Cc1c(C(=O)NN2CCCCC2)nn(-c2ccc(Cl)cc2Cl)c1-c1ccc(Cl)cc1` [rimonabant, 1-H-pyrazole-3-carboxamide, 5-(4-chlorophenyl)-1-(2,4-dichlorophenyl)-4-methyl-N-1-piperidinyl]?
further weight loss compared with sibutramine treated animals ([1]; Day 14-28): approximately 4%; body weight loss at day 14 [1]: 15%; ED50 ([2]; Zucker fa/fa rats, oral, 1 hour before 3 hour 60% fat snack): 8 mg/kg; effect on snack intake / snacking [2]: effective in reducing snack intake; body weight re-gain [3]: prevent body weight re-gain

Which “lean mass (DEXA) vs. DIO controls” value [4] does the source give for `CC(C)CC(N(C)C)C1(c2ccc(Cl)cc2)CCC1` (stereo not drawn) [sibutramine, N,N-dimethyl-1-[1-(4-chlorophenyl)cyclobutyl]-3-methylbutylamine] here?
Its value is “statistical decreases in lean mass”.

What about the “body weight loss at day 14” value [1] of the same molecule?
The value was 14%.

What about the ED50 ([2]; po) of the same molecule?
Its ED50 is 24 mg/kg.

What about the “effect on snack intake / snacking” value [2] of the same molecule?
The value was “effective in reducing snack intake”.

What about the food intake ([5]; literature studies, initially) of the same molecule?
Its food intake is “potently inhibits food intake”.

And the “reduction of body weight” value ([5]; over a 6 month or a 1 year period)?
The value was “about 10%”.

What about the body weight re-gain [3] of the same molecule?
Its body weight re-gain is “prevent body weight re-gain”.
